Results reported in article PMC6446940 (ChemMedChem, 2018).
Read-outs that look alike come from different tables or passages of the source.

Assays:
[1] = test system: HIV-1 Env pseudovirus CRF02_AG, clone 251; assay: Single-cycle assay TZM-bl, Env pseudovirus panel
[2] = test system: MT-2 cells; assay: Cytotoxicity; format: cell-based, human; conditions: read-out: MT-2 CC50, MTS, mean ± SD, n=3
[3] = test system: HIV-1 Env pseudovirus QG393.60M.ENV.B7; assay: Single-cycle assay TZM-bl, Env pseudovirus panel
[4] = test system: panel of HIV-1 Env pseudoviruses; format: cell-based
[5] = test system: human PBMC; assay: Cytotoxicity; format: cell-based; conditions: human PBMC, 7 days, MTS
[6] = test system: HIV-1 Env pseudovirus QA790.204I.ENV.A4; assay: Single-cycle assay TZM-bl, Env pseudovirus panel
[7] = test system: HIV-1LAI; assay: Multi-cycle infection assay in PBMC; conditions: read-out: IC50 HIV-1LAI; human PBMC; CXCR4-tropic lab-adapted virus; p24, 7 days
[8] = test system: HIV-1 Env pseudovirus QF495.23M.ENV.A3; assay: Single-cycle assay TZM-bl, Env pseudovirus panel
[9] = test system: HIV-1 Env pseudovirus PVO, clone 4; assay: Single-cycle assay TZM-bl, Env pseudovirus panel
[10] = test system: HIV-1 Env pseudovirus CRF02_AG, clone 33; assay: Single-cycle assay TZM-bl, Env pseudovirus panel
[11] = test system: TZM-bl cells; assay: Cytotoxicity; format: cell-based; conditions: read-out: TZMb-l CC50; TZM-bl cells, 3 days, MTS; mean ± SD, n=3
[12] = test system: HIV-1 Env pseudovirus QA013.70I.ENV.H1; assay: Single-cycle assay TZM-bl, Env pseudovirus panel
[13] = test system: HIV-1 Env pseudovirus QD435.100M.ENV.B5; assay: Single-cycle assay TZM-bl, Env pseudovirus panel
[14] = test system: HIV-1 Env pseudovirus MG505.W0M.ENV.A2; assay: Single-cycle assay, Paired Infant and Maternal Env clones
[15] = test system: HIV-1 Env pseudovirus QA790.204I.ENV.E2; assay: Single-cycle assay TZM-bl, Env pseudovirus panel
[16] = test system: HIV-1 Env pseudovirus QH0692, clone 42; assay: Single-cycle assay TZM-bl, Env pseudovirus panel
[17] = Cytotoxicity; format: cell-based, human; conditions: human, MT-2 cells, MT-2 CC50, MT-2 cells, MTS; mean ± SD, n=3
[18] = test system: HIV-1 Env pseudovirus KNH1144; assay: Single-cycle assay TZM-bl, Env pseudovirus panel
[19] = Cytotoxicity; format: cell-based, human; conditions: human, freshly isolated and stimulated uninfected PBMC
[20] = test system: HIV-1 Env pseudovirus CRF02_AG, clone 253; assay: Single-cycle assay TZM-bl, Env pseudovirus panel
[21] = test system: HIV-1IIIB; assay: Multi-cycle infection assay in MT-2 cells; format: cell-based; conditions: read-out: MT-2 IC50, p24, mean ± SD, n=3
[22] = Cytotoxicity; format: cell-based; conditions: human, TZM-bl cells, TZMb-l CC50, TZM-bl cells, 3 days, MTS; mean ± SD, n=3
[23] = Cytotoxicity; format: cell-based; conditions: human, U87-CD4-CCR5 cells

Compound | CC50 [2] [µM] | CC50 [11] [µM] | IC50 ([1]; TZM-bl) [µM] | CC50 at 4 days [17] [µM] | IC50 ([3]; TZM-bl) [µM] | IC50 [18] [µM] | CC50 at 7 days [19] [µM] | IC50 [20] [µM] | IC50 ([6]; TZM-bl) [µM] | IC50 ([8]; TZM-bl) [µM] | IC50 ([9]; TZM-bl) [µM] | IC50 ([10]; TZM-bl) [µM] | IC50 [21] [µM] | CC50 at 3 days [22] [µM] | IC50 ([12]; TZM-bl) [µM] | IC50 ([13]; TZM-bl) [µM] | IC50 [14] [µM] | IC50 ([15]; TZM-bl) [µM] | CC50 at 3 days [23] [µM] | IC50 ([16]; TZM-bl) [µM] | further results
Cc1nc([C@@H](CN)NC(=O)c2ccc(-c3ccc(F)c(F)c3)[nH]2)sc1CO (single isomer, unassigned) [NBD-14113, reference compound] | 96.8 ± 1.8 | 84.1 ± 1.3 | – | – | – | – | – | – | – | – | – | – | – | – | – | – | – | – | – | – | IC50 ([1]; subtype AG, NIH # 11595, CRF02_AG, clone 251, TZM-bl cells): 3 ± 0.2 µM; IC50 ([3]; subtype A2/D, NIH # 11906, QG393.60M.ENV.B7, TZM-bl cells): 5.9 ± 0.1 µM; IC50 ([4]; read-out: IC50 Mean ± SEM: Overall (n=34), mean over 34 HIV-1 Env pseudoviruses): 3.9 ± 0.17 µM; IC50 ([4]; read-out: IC50 Mean ± SEM: Subtype A (n=5), mean over subtype A pseudoviruses): 3.44 ± 0.36 µM; IC50 ([4]; read-out: IC50 Mean ± SEM: Subtype B (n=10), mean over subtype B pseudoviruses): 3.79 ± 0.18 µM; IC50 ([4]; read-out: IC50 Mean ± SEM: Subtype C (n=7), mean over subtype C pseudoviruses): 4.04 ± 0.43 µM; IC50 ([4]; read-out: IC50 Mean ± SEM: Subtype D (n=3), mean over subtype D pseudoviruses): 3.5 ± 0.75 µM; CC50 [5]: 47.1 ± 2.6 µM; IC50 ([6]; subtype A1/D, NIH # 11901, QA790.204I.ENV.A4, TZM-bl cells): 5.5 ± 0.3 µM; IC50 [7]: 3.8 ± 1.1 µM; IC50 ([8]; subtype A, NIH # 11891, QF495.23M.ENV.A3, TZM-bl cells): 4 ± 0.2 µM; IC50 ([9]; subtype B, NIH # 11022, PVO, clone 4, TZM-bl cells): 4 ± 0.3 µM; IC50 ([10]; subtype AG, NIH # 11607, CRF02_AG, clone 33, TZM-bl cells): 3.5 ± 0.2 µM; IC50 ([12]; subtype D, NIH # 11911, QA013.70I.ENV.H1, TZM-bl cells): 3.5 ± 0.1 µM; IC50 ([13]; subtype D, NIH # 11916, QD435.100M.ENV.B5, TZM-bl cells): 2.2 ± 0.3 µM; IC50 ([14]; subtype A, NIH # 11528-M (maternal), MG505.W0M.ENV.A2): 4.7 ± 0.8 µM; IC50 ([15]; subtype A1/D, NIH # 11904, QA790.204I.ENV.E2, TZM-bl cells): 3 ± 0.1 µM; IC50 ([16]; subtype B, NIH # 11018, QH0692, clone 42, TZM-bl cells): 4.3 ± 0.4 µM
Cc1nc(C(CN)NC(=O)c2ccc(-c3ccc4c(c3)OCO4)[nH]2)sc1CO (stereo not shown) [NBD-14110, N-(2-amino-1-(5-(hydroxymethyl)-4-methylthiazol-2-yl)ethyl)-5-(benzo[d][1,3]dioxol-5-yl)-1H-pyrrole-2-carboxamide] | – | – | 2.5 ± 0.1 | 193 ± 6.3 | 5.2 ± 0.3 | 5.9 ± 0.4 | 62.8 ± 2.9 | 3.2 ± 0.2 | 2.1 ± 0.6 | 3 ± 0.1 | 1.4 ± 0.3 | 5 ± 0.3 | 3.8 ± 1.4 | 146 ± 7.6 | 2.9 ± 0.3 | 2.4 ± 0.2 | 6.1 ± 0.5 | 1.5 ± 0.2 | > 100 | 8.2 ± 0.2 | –
NCC(NC(=O)c1ccc(-c2ccc3c(c2)OCO3)[nH]1)c1ncc(CO)s1 (stereo not shown) [NBD-14123, N-(2-amino-1-(5-(hydroxymethyl)thiazol-2-yl)ethyl)-5-(benzo[d][1,3]dioxol-5-yl)-1H-pyrrole-2-carboxamide] | – | – | 3.1 ± 0.2 | 192 ± 2.6 | 5.9 ± 0.2 | 4.1 ± 0.4 | 61.3 ± 4 | 3.2 ± 0.2 | 1.6 ± 0.1 | 3.3 ± 0.2 | 1.9 ± 0.2 | 3.5 ± 0.4 | – | 142 ± 2.6 | 2.5 ± 0.4 | 3.5 ± 0.3 | 3.7 ± 0.2 | 2.5 ± 0.3 | > 100 | 6.4 ± 0.1 | –
CNCC(NC(=O)c1ccc(-c2ccc3c(c2)OCO3)[nH]1)c1nc(CO)cs1 (stereo not shown) [NBD-14159, 5-(benzo[d][1,3]dioxol-5-yl)-N-(1-(4-(hydroxymethyl)thiazol-2-yl)-2-(methylamino)ethyl)-1H-pyrrole-2-carboxamide] | 180 ± 2 | 95.8 ± 1.4 | 3.5 ± 0.1 | – | 3.8 ± 0.4 | 4 ± 0.3 | 68.3 ± 5 | 3.1 ± 0.1 | 4 ± 0.4 | 3.7 ± 0.1 | 4.3 ± 0.7 | 2.7 ± 0.2 | 2.98 ± 0.1 | – | 4.3 ± 0.7 | 3.3 ± 0.2 | 4.6 ± 0.1 | 3.2 ± 0.2 | > 100 | 5.8 ± 0.7 | –
